Measured values published in patent US10259810B2, “N-sulfonylated pyrazolo[3,4-b]pyridin-6-carboxamides and method of use” (AbbVie S.à.r.l., priority 2015, dated 2019).

Key:
Assay type in all cases: cell-based
[1] = target: T1, ΔF508-CFTR (Homo sapiens, UniProt P13569, DEL508-508); assay: CFTR cell surface levels using HRP-tagged ΔF508-CFTR expressing CFBE cells, in the presence of a co-corrector; details: HRP-tagged ΔF508-CFTR CFBE cells, in the presence of 3 μM co-corrector; for EC50: read-out: EC50
T1 construct: host or cells: CFBE41o-, doxycycline-inducible
T1 sequence (P13569 with tags, fused parts or gaps DEL508-508): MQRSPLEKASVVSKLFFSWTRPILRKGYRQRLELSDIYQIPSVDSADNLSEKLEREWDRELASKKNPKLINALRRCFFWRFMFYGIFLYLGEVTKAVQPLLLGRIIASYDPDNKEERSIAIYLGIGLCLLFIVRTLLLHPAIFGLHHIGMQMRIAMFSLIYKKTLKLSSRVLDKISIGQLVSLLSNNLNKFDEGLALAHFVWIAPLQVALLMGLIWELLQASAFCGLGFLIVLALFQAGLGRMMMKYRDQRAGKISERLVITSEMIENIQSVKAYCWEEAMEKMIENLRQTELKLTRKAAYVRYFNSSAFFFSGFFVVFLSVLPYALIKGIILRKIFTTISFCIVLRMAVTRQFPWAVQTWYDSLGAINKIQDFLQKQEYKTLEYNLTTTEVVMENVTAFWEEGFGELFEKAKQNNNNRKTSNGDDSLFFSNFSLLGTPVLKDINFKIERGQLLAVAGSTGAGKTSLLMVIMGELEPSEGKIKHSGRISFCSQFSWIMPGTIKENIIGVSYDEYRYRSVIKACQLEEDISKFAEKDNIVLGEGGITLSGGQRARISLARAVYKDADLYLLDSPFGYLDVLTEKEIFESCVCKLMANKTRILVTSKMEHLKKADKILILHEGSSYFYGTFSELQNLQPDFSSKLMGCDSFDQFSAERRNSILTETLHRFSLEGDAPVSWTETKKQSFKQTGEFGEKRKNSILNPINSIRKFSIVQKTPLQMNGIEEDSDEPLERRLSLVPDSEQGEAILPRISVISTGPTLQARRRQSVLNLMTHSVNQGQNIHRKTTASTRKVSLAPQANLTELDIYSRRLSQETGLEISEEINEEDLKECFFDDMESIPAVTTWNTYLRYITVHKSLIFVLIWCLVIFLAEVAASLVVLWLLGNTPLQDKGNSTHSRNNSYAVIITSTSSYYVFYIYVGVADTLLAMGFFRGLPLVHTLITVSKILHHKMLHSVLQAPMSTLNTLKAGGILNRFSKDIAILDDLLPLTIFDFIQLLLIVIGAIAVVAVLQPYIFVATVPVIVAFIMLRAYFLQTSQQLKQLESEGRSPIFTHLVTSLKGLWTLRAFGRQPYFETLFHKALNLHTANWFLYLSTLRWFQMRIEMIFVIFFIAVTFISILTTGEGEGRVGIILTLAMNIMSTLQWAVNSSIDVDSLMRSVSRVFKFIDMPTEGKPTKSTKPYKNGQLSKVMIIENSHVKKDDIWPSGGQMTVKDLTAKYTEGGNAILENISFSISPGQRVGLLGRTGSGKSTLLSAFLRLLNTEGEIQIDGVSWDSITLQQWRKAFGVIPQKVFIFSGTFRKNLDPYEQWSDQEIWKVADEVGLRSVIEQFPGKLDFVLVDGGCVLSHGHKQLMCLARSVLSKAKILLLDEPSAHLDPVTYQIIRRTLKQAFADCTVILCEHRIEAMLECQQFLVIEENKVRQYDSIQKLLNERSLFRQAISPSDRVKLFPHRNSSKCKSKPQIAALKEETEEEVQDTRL
How it was run: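 Chemiluminescent read-out of surface HRP (15 min, dark) after PBS washes. Activity is normalized as 100×(sample−DMSO)/(3 μM co-corrector alone−DMSO).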

[2] = target: T1, ΔF508-CFTR; assay: CFTR cell surface levels using HRP-tagged ΔF508-CFTR expressing CFBE cells, intrinsic corrector capacity; design: % Activation: concentration or dose not given beside the values; details: HRP-tagged ΔF508-CFTR expressing CFBE41o- cells, compound alone (intrinsic corrector capacity), 20 hours at 33° C.; for EC50: read-out: EC50
How it was run: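 Read-out: chemiluminescent HRP activity of ECL4-HRP-tagged ΔF508-CFTR at the cell surface, 15 min substrate in dark. Normalized as 100×(sample−DMSO)/(positive control−DMSO).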

[3] = target: T2, CFTR ΔF508 (Homo sapiens, UniProt P13569, DEL508-508); assay: Chronic TECC assay, primary bronchial epithelial cells of CF patients homozygous for CFTR ΔF508 (corrector, co-corrector and potentiator); details: chronic TECC, AUC = full area under the curve upon forskolin stimulation; for % Activity at 3 μM (AUC**): test compound at 3 μM; for EC50: read-out: EC50 (nM) (AUC**); for % Activity at 1 μM (AUC**): test compound at 1 μM
T2 construct: bronchial epithelial cells isolated from CF patients homozygous for the CFTR ΔF508 mutation; McGill University; Asterand; University of North Carolina hAEC-CF; host or cells: primary human bronchial epithelial cells from CF patients homozygous for ΔF508, differentiated at air-liquid interface
T2 sequence (P13569 with tags, fused parts or gaps DEL508-508): as above
How it was run: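 Primary bronchial epithelial cells from ΔF508-homozygous CF patients on collagen IV-coated Transwells were chronically treated with test compound plus corrector and potentiator, which were re-added before recording. Ieq was derived from PD and Rt in NaCl-Ringer, pH 7.4, at 37° C, with apical amiloride and bilateral forskolin, recorded every 2 min over 20 min. Ieq increase was normalized to controls, and EC50 was taken from per-well concentrations.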

| Structure (SMILES) | % Activation [1] [%] | EC50 [1] [nM] | % Activation [2] [%] | EC50 [2] [nM] | % Activity at 3 μM (AUC**) [3] [%] | EC50 [3] [nM] | % Activity at 1 μM (AUC**) [3] [%] |
| --- | --- | --- | --- | --- | --- | --- | --- |
| CN(C)S(=O)(=O)NC(=O)c1cc(N2CCC3C(CCN3C3COC3)C2)c2c(C3CCC3)nn(-c3ccc(F)cc3)c2n1 (stereo not shown) [Compound 627, 3-cyclobutyl-N-(dimethylsulfamoyl)-1-(4-fluorophenyl)-4-[1-(oxetan-3-yl)octahydro-5H-pyrrolo[3,2-c]pyridin-5-yl]-1H-pyrazolo[3,4-b]pyridine-6-carboxamide] | 348.57 | 24.8 | 162.47 | 82.3 | 446.6667 | – | – |
| CN(C)S(=O)(=O)NC(=O)c1cc(N2CCC3C(CCN3C3CCOCC3)C2)c2c(C3CCC3)nn(-c3ccc(F)cc3)c2n1 (stereo not shown) [Compound 628, 3-cyclobutyl-N-(dimethylsulfamoyl)-1-(4-fluorophenyl)-4-[1-(oxan-4-yl)octahydro-5H-pyrrolo[3,2-c]pyridin-5-yl]-1H-pyrazolo[3,4-b]pyridine-6-carboxamide] | 477.32 | 132 | 283.25 | 425 | 473.0586 | 88.4 | – |
| CNS(=O)(=O)NC(=O)c1cc(N2CCC(N3CCC(OC)CC3)CC2)c2c(C3CCC3)nn(-c3ccc(F)cc3)c2n1 [Compound 629, 3-cyclobutyl-1-(4-fluorophenyl)-4-(4-methoxy[1,4'-bipiperidin]-1'-yl)-N-(methylsulfamoyl)-1H-pyrazolo[3,4-b]pyridine-6-carboxamide] | 546.75 | 267 | 337.34 | 517 | 153.3918 | 6.85 | – |
| COC1CCN(C2CCN(c3cc(C(=O)NS(N)(=O)=O)nc4c3c(C3CCC3)nn4-c3ccc(F)cc3)CC2)CC1 [Compound 630, 3-cyclobutyl-1-(4-fluorophenyl)-4-(4-methoxy[1,4'-bipiperidin]-1'-yl)-N-sulfamoyl-1H-pyrazolo[3,4-b]pyridine-6-carboxamide] | 593.42 | 375 | 339.64 | 739 | – | 47.1 | 125.1944 |
| COC1CCN(C2CCN(c3cc(C(=O)NS(=O)(=O)N4CCC4)nc4c3c(C3CCC3)nn4-c3ccc(F)cc3)CC2)CC1 [Compound 632, N-(azetidine-1-sulfonyl)-3-cyclobutyl-1-(4-fluorophenyl)-4-(4-methoxy[1,4'-bipiperidin]-1'-yl)-1H-pyrazolo[3,4-b]pyridine-6-carboxamide] | 466.83 | 154 | 252.75 | 304 | 237.1158 | 29.3 | – |
| CC(C)Oc1nn(C2CCCCC2)c2nc(C(=O)NS(C)(=O)=O)cc(-c3ccc(CN4CC(N(C)C)C4)cc3)c12 [Compound 633, 1-cyclohexyl-4-(4-{[3-(dimethylamino)azetidin-1-yl]methyl}phenyl)-N-(methanesulfonyl)-3-[(propan-2-yl)oxy]-1H-pyrazolo[3,4-b]pyridine-6-carboxamide] | 400.44 | 207 | 180.46 | 345 | – | 204 | – |
| CC(C)Oc1nn(C2CCCCC2)c2nc(C(=O)NS(C)(=O)=O)cc(-c3ccc(CN4CCN(C(C)C)CC4)cc3)c12 [Compound 634, 1-cyclohexyl-N-(methanesulfonyl)-3-[(propan-2-yl)oxy]-4-(4-{[4-(propan-2-yl)piperazin-1-yl]methyl}phenyl)-1H-pyrazolo[3,4-b]pyridine-6-carboxamide] | 439.44 | 78.8 | 227.46 | 200 | – | 138 | – |
| CNS(=O)(=O)NC(=O)c1cc(N2CCC(N3CCN(C(C)C)CC3)CC2)c2c(C3CCC3)nn(-c3ccc(F)cc3)c2n1 [Compound 638, 3-cyclobutyl-1-(4-fluorophenyl)-N-(methylsulfamoyl)-4-{4-[4-(propan-2-yl)piperazin-1-yl]piperidin-1-yl}-1H-pyrazolo[3,4-b]pyridine-6-carboxamide] | 606.08 | 95 | 398.98 | 241 | 341.3493 | 11.2 | – |
| COC1CCN(C2CCN(c3cc(C(=O)NS(=O)(=O)N4CC(OC)C4)nc4c3c(C3CCC3)nn4-c3ccc(F)cc3)CC2)CC1 [Compound 645, 3-cyclobutyl-1-(4-fluorophenyl)-N-(3-methoxyazetidine-1-sulfonyl)-4-(4-methoxy[1,4'-bipiperidin]-1'-yl)-1H-pyrazolo[3,4-b]pyridine-6-carboxamide] | 384.37 | 244 | 194.33 | 331 | 246.4648 | – | – |
| COC1CCN(C2CCN(c3cc(C(=O)NS(=O)(=O)N4CC(F)C4)nc4c3c(C3CCC3)nn4-c3ccc(F)cc3)CC2)CC1 [Compound 646, 3-cyclobutyl-N-(3-fluoroazetidine-1-sulfonyl)-1-(4-fluorophenyl)-4-(4-methoxy[1,4'-bipiperidin]-1'-yl)-1H-pyrazolo[3,4-b]pyridine-6-carboxamide] | 447.9 | 259 | 236.13 | 400 | 276.7167 | 23.5 | – |
| COC1CCN(C2CCN(c3cc(C(=O)NS(=O)(=O)N4CCOCC4)nc4c3c(C3CCC3)nn4-c3ccc(F)cc3)CC2)CC1 [Compound 647, 3-cyclobutyl-1-(4-fluorophenyl)-4-(4-methoxy[1,4'-bipiperidin]-1'-yl)-N-(morpholine-4-sulfonyl)-1H-pyrazolo[3,4-b]pyridine-6-carboxamide] | 337.07 | 112 | 164.47 | 216 | 420.0246 | 151 | – |
| CS(=O)(=O)NC(=O)c1cc(C2CCC(N3CCOCC3)CC2)c2c(C3CCC3)nn(-c3ccccc3)c2n1 (stereo not shown) [Compound 648, 3-cyclobutyl-N-(methanesulfonyl)-4-[4-(morpholin-4-yl)cyclohexyl]-1-phenyl-1H-pyrazolo[3,4-b]pyridine-6-carboxamide] | 288.85 | 110 | 109.65 | 316 | – | – | 366.0679 |
| CN(C)S(=O)(=O)NC(=O)c1cc(C2CCC(N3CCOCC3)CC2)c2c(C3CCC3)nn(-c3ccccc3)c2n1 (stereo not shown) [Compound 649, 3-cyclobutyl-N-(dimethylsulfamoyl)-4-[4-(morpholin-4-yl)cyclohexyl]-1-phenyl-1H-pyrazolo[3,4-b]pyridine-6-carboxamide] | 231.7 | 152 | 69.12 | 370 | 224.5026 | – | – |
| CN(C(=O)c1cc(N2CCC(N3CCOCC3)CC2)c2c(C3CCC3)nn(-c3ccc(F)cc3)c2n1)S(C)(=O)=O [Compound 654, 3-cyclobutyl-1-(4-fluorophenyl)-N-(methanesulfonyl)-N-methyl-4-[4-(morpholin-4-yl)piperidin-1-yl]-1H-pyrazolo[3,4-b]pyridine-6-carboxamide] | 347.6 | 114 | 73.925 | 5080 | – | – | 293.3333 |
| CCS(=O)(=O)N(C)C(=O)c1cc(N2CCC(CN3CCCC3)CC2)c2c(C3CCC3)nn(-c3ccccc3)c2n1 [Compound 659, 3-cyclobutyl-N-(ethanesulfonyl)-N-methyl-1-phenyl-4-{4-[(pyrrolidin-1-yl)methyl]piperidin-1-yl}-1H-pyrazolo[3,4-b]pyridine-6-carboxamide] | 290.95 | 130 | 96.44 | 142 | 251.6549 | – | – |
